Experimental data from ChEMBL document CHEMBL3045726, “Fungicidal Activity of Pyrazolylpyrimidines” (1990).
Converted amounts (≈) assume the structure as drawn.

Key:
Assay type in all cases: functional
Pyricularia oryzae [1] = test: Fungicidal activity against Magnaporthe oryzae by agar dilution method
Pyricularia oryzae [2] = test: Fungicidal activity against Magnaporthe oryzae in rice seedlings assessed as control of rice blast at 250 ppm by curative foliar treatment
Nakataea oryzae = test: Fungicidal activity against Magnaporthe salvinii by agar dilution method
Podosphaera fuliginea [3] = test: Fungicidal activity against Podosphaera fuliginea in cucumber assessed as control of cucumber powdery mildew at 62.5 ppm measured after 10 days of inoculation
Podosphaera fuliginea [4] = test: Fungicidal activity against Podosphaera fuliginea in cucumber assessed as control of cucumber powdery mildew at 125 ppm measured after 10 days of inoculation
Podosphaera fuliginea [5] = test: Fungicidal activity against Podosphaera fuliginea in cucumber assessed as control of cucumber powdery mildew at 62.5 ppm measured after 7 days of inoculation
Podosphaera fuliginea [6] = test: Fungicidal activity against Podosphaera fuliginea in cucumber assessed as control of cucumber powdery mildew at 125 ppm measured after 7 days of inoculation
Pyricularia oryzae [7] = test: Fungicidal activity against Magnaporthe oryzae in rice seedlings assessed as control of rice blast at 500 ppm by preventive foliar treatment
Pyricularia oryzae [8] = test: Fungicidal activity against Magnaporthe oryzae in rice seedlings assessed as control of rice blast at 500 ppm by curative foliar treatment

Row | Compound | MIC (Pyricularia oryzae [1]) | Activity (Pyricularia oryzae [2]) | MIC (Nakataea oryzae) | Activity (Podosphaera fuliginea [3]) | Activity (Podosphaera fuliginea [4]) | Activity (Podosphaera fuliginea [5]) | Activity (Podosphaera fuliginea [6]) | Activity (Pyricularia oryzae [7]) | Activity (Pyricularia oryzae [8])
1 | Cc1cc(O)nc(-n2nc(C)cc2C)n1 | 12.5 µg/mL (≈ 61.2 µM) | 69% | – | – | – | – | – | – | –
2 | Cc1cc(C)n(-c2nc(C)c(C)c(O)n2)n1 | 12.5 µg/mL (≈ 57.3 µM) | 0% | 100 µg/mL (≈ 458 µM) | – | – | – | – | – | –
3 | CCCCc1c(C)nc(-n2nc(C)cc2C)nc1O | 6.25 µg/mL (≈ 24 µM) | – | 0.1 µg/mL (≈ 0.384 µM) | 100% | 100% | 100% | 100% | 48% | 99%
4 | Cc1cc(C)n(-c2nc(C)c(CC(C)C)c(O)n2)n1 | 6.25 µg/mL (≈ 24 µM) | – | 0.78 µg/mL (≈ 3 µM) | 99.4% | 100% | 100% | 100% | 93% | 98%
5 | CCCCCc1c(C)nc(-n2nc(C)cc2C)nc1O | 6.25 µg/mL (≈ 22.8 µM) | – | 0.2 µg/mL (≈ 0.729 µM) | 100% | 100% | 100% | 100% | 81% | 94%
6 | CCCCCCc1c(C)nc(-n2nc(C)cc2C)nc1O | 6.25 µg/mL (≈ 21.7 µM) | – | 6.25 µg/mL (≈ 21.7 µM) | 98.4% | 100% | 99.4% | 100% | 81% | 89%
7 | Cc1cc(C)n(-c2nc(O)c3c(n2)CCC3)n1 | 6.25 µg/mL (≈ 27.1 µM) | 15% | 6.25 µg/mL (≈ 27.1 µM) | – | – | – | – | 13% | –
8 | Cc1cc(C)n(-c2nc(O)c3c(n2)CCCC3)n1 | 3.12 µg/mL (≈ 12.8 µM) | 0% | – | – | – | – | – | 0% | –
9 | Cc1cc(C)nc(-n2nc(C(F)(F)F)cc2C(F)(F)F)n1 | > 100 µg/mL | – | > 100 µg/mL | – | – | – | – | 51% | 31%
10 | Cc1cc(C)nc(-n2nc(C(F)(F)F)cc2-c2ccccc2)n1 | 100 µg/mL (≈ 314 µM) | – | > 100 µg/mL | – | – | – | – | 74% | 53%
11 | CCOC(=O)c1cc(C)nn1-c1nc(C)cc(C)n1 | > 100 µg/mL | – | > 100 µg/mL | – | – | – | – | 0% | 0%
12 | CCOC(=O)c1c(C)nn(-c2nc(C)cc(C)n2)c1C | > 100 µg/mL | – | > 100 µg/mL | – | – | – | – | 69% | 85%
13 | CC(=O)c1c(C)nn(-c2nc(C)cc(C)n2)c1C | > 100 µg/mL | – | > 100 µg/mL | – | – | – | – | 40% | 84%
14 | Cc1cc(C)nc(-n2nc(C)c(Cl)c2C)n1 | 50 µg/mL (≈ 211 µM) | – | 50 µg/mL (≈ 211 µM) | – | – | – | – | 29% | 99%
15 | C=CCc1c(C)nn(-c2nc(C)cc(C)n2)c1C | 100 µg/mL (≈ 413 µM) | – | 25 µg/mL (≈ 103 µM) | – | – | – | – | 85% | 99%
16 | Cc1cc(C)n(-c2nc(C)c(C)c(C)n2)n1 | 50 µg/mL (≈ 231 µM) | – | 100 µg/mL (≈ 462 µM) | – | – | – | – | 65% | 78%
17 | Cc1cc(C)nc(-n2nc(C)cc2C)n1 | > 100 µg/mL | – | 100 µg/mL (≈ 494 µM) | – | – | – | – | 99% | 100%
18 | Cc1ccnc(-n2nc(C)cc2C)n1 | > 100 µg/mL | – | > 100 µg/mL | – | – | – | – | 78% | 96%
19 | Cc1cc(C)n(-c2ncccn2)n1 | > 100 µg/mL | – | > 100 µg/mL | – | – | – | – | 78% | 73%
20 | Cc1cc(C)n(-c2nc(C)c3ccccc3n2)n1 | 25 µg/mL (≈ 105 µM) | – | 6.25 µg/mL (≈ 26.2 µM) | – | – | – | – | 71% | 98%
21 | Cc1cc(C)n(-c2ncc3ccccc3n2)n1 | 25 µg/mL (≈ 111 µM) | – | 25 µg/mL (≈ 111 µM) | – | – | – | – | 84% | 99%

Row | Compound | MIC (Pyricularia oryzae [1]) | Activity (Pyricularia oryzae [2]) | MIC (Nakataea oryzae) | Activity (Podosphaera fuliginea [3]) | Activity (Podosphaera fuliginea [4]) | Activity (Podosphaera fuliginea [5]) | Activity (Podosphaera fuliginea [6]) | Activity (Pyricularia oryzae [7]) | Activity (Pyricularia oryzae [8])
22 | CCc1cc(C)n(-c2nc(C)cc(C)n2)n1 | 50 µg/mL (≈ 231 µM) | – | 50 µg/mL (≈ 231 µM) | – | – | – | – | 31% | 100%
23 | CCc1cc(C)n(-c2nccc(C)n2)n1 | 25 µg/mL (≈ 124 µM) | – | 50 µg/mL (≈ 247 µM) | – | – | – | – | 84% | 98%
24 | CCc1cc(C)n(-c2ncccn2)n1 | > 100 µg/mL | – | > 100 µg/mL | – | – | – | – | 74% | 93%
25 | CCc1cc(CC)n(-c2nc(C)cc(C)n2)n1 | 25 µg/mL (≈ 109 µM) | – | 25 µg/mL (≈ 109 µM) | – | – | – | – | 40% | 100%
26 | CCc1cc(CC)n(-c2nccc(C)n2)n1 | 25 µg/mL (≈ 116 µM) | – | 25 µg/mL (≈ 116 µM) | – | – | – | – | 59% | 100%
27 | CCc1cc(CC)n(-c2ncccn2)n1 | 100 µg/mL (≈ 494 µM) | – | > 100 µg/mL | – | – | – | – | 90% | 100%
28 | CCCc1cc(CCC)n(-c2nc(C)cc(C)n2)n1 | 12.5 µg/mL (≈ 48.4 µM) | – | 6.25 µg/mL (≈ 24.2 µM) | – | – | – | – | 40% | 100%
29 | Cc1cc(C)nc(-n2nc(C(C)C)cc2C(C)C)n1 | 6.25 µg/mL (≈ 24.2 µM) | – | 6.25 µg/mL (≈ 24.2 µM) | – | – | – | – | 31% | 100%
30 | Cc1cc(C)nc(-n2nc(C(C)(C)C)cc2C(C)(C)C)n1 | > 100 µg/mL | – | > 100 µg/mL | – | – | – | – | 69% | 89%
31 | Cc1cc(C)nc(-n2nc(-c3ccccc3)cc2-c2ccccc2)n1 | > 100 µg/mL | – | > 100 µg/mL | – | – | – | – | 31% | 40%
32 | Cc1cc(C)nc(-n2nc(C)cc2C(F)(F)F)n1 | > 100 µg/mL | – | > 100 µg/mL | – | – | – | – | 53% | 0%
33 | Cc1cc(C)nc(-n2ncc3ccccc32)n1 | 50 µg/mL (≈ 223 µM) | – | 25 µg/mL (≈ 111 µM) | – | – | – | – | 31% | 96%
34 | Cc1cc(C)nc(-n2nc3c(c2C)CCCC3)n1 | 12.5 µg/mL (≈ 51.6 µM) | – | 12.5 µg/mL (≈ 51.6 µM) | – | – | – | – | 84% | 99%
35 | Cc1nc(-n2nc(C)c(C)c2C)nc(C)c1C | 50 µg/mL (≈ 217 µM) | – | 50 µg/mL (≈ 217 µM) | – | – | – | – | 81% | 99%
36 | Cc1cc(C)nc(-n2nc(C)c(C)c2C)n1 | 100 µg/mL (≈ 462 µM) | – | 50 µg/mL (≈ 231 µM) | – | – | – | – | 81% | 99%
37 | Cc1ccnc(-n2nc(C)c(C)c2C)n1 | 50 µg/mL (≈ 247 µM) | – | 50 µg/mL (≈ 247 µM) | – | – | – | – | 63% | 100%
38 | CCc1c(C)nn(-c2nc(C)cc(C)n2)c1C | 50 µg/mL (≈ 217 µM) | – | 50 µg/mL (≈ 217 µM) | – | – | – | – | 100% | 100%
39 | CCCc1c(C)nn(-c2nc(C)cc(C)n2)c1C | 25 µg/mL (≈ 102 µM) | – | 12.5 µg/mL (≈ 51.2 µM) | – | – | – | – | 90% | 98%
40 | Cc1cc(C)nc(-n2nc(C)c(CC(C)C)c2C)n1 | 6.25 µg/mL (≈ 24.2 µM) | – | 6.25 µg/mL (≈ 24.2 µM) | – | – | – | – | 90% | 100%
41 | CCCCc1c(C)nc(N(C)C)nc1O [DIMETHIRIMOL] | – | – | – | 100% | 100% | 100% | 100% | – | –
42 | CCCCc1c(C)nc(NCC)[nH]c1=O [ETHIRIMOL] | – | – | – | 100% | 100% | 100% | 100% | – | –
